Assay results reported in patent US9982011B2, “Legumain activated doxorubicin derivative as well as preparation method and application thereof” (priority 2012, dated 2018).
Entries after “also recorded” stand apart in the source; their conditions may differ.

Tests used:
[1] = Distribution of drug in tumor and heart tissues after intravenous injection; type: in vivo; conditions: for Distribution in tumor tissue sections (fluorescence microscope): 12 hours after intravenous injection of 10 μmol/kg, compared with Succinyl-AANL-DOX, FIG. 3; for Accumulation in the heart tissue / Accumulation in the tumor tissue: FIG. 4; for Accumulation in the tumor tissue: compared with doxorubicin and Succinyl-AANL-DOX
Excerpt: After intravenous injection of EMC-AANL-DOX (SEQ ID NO: 2), EMC-AANL-DOX (SEQ ID NO: 2) could accumulate at the tumor site due to the targeting property of the EMC group, as compared with Succinyl-AANL-DOX (SEQ ID NO: 2) and more EMC-AANL-DOX (SEQ ID NO: 2) were distributed in the tumor tissue. Since the drug itself could produce fluorescence, we detected distribution of Succinyl-AANL-DOX (SEQ ID NO: 2) and EMC-AANL-DOX (SEQ ID NO: 2) in the tumor tissue sections by fluorescence microscope 12 hours after intravenous injection of 10 μmol/kg Succinyl-AANL-DOX (SEQ ID NO: 2) and EMC-AANL-DOX (SEQ ID NO: 2). The nucleus was stained by 4′,6-diamidino-2-phenylindole (DAPI).

[2] = system: MDA-MB231 cells; test: Efficacy in MDA-MB231 tumor model in nude mice; type: in vivo; conditions: i.p. twice weekly for three weeks, S1, S2 30 mg/kg, doxorubicin hydrochloride 4 mg/kg
Excerpt: Test purpose: to investigate the anti-tumor efficacy of S1 and S2 via mouse tumor treatment model.
Test drug: S1 and S2 injections, and doxorubicin hydrochloride injection, diluted to corresponding concentrations by physiological saline when testing.
1. Animal: nude mice of 6-8 weeks old, all female.
1) MDA-MB231 cells were purchased from American type culture collection (ATCC) and identified according the specification provided by ATCC.
2) Production of tumor. […] Mice were randomly grouped after the diameter of the tumor reached about 0.3 cm to 0.4 cm. Then treatment began.
(§1) According to the clinical application of S1 and S2, drugs were intraperitoneally injected. A dose of 30 mg/kg (<1/2 MTD) was used for the S1 treatment group, 30 mg/kg (<1/2 MTD) for the S2 treatment group, and 4 mg/kg (>1/2 MTD) for doxorubicin hydrochloride. The control group was administered with physiological saline. The drugs were administered twice weekly for three weeks.

[3] = system: 4T1 cells; test: Tumor growth inhibition in 4T1 breast cancer model in BALB/C mice; type: in vivo
Excerpt: Test purpose: to investigate the anti-tumor efficacy of Succinyl-AANL-DOX (SEQ ID NO: 2) and EMC-AANL-DOX (SEQ ID NO: 2) in a 4T1 breast cancer treatment model from BALB/C mice.
Treatment drug: Succinyl-AANL-DOX (SEQ ID NO: 2) and EMC-AANL-DOX (SEQ ID NO: 2) injections, and doxorubicin hydrochloride injection, diluted to corresponding concentrations by physiological saline when testing.
1) 4T1 cells were purchased from American type culture collection (ATCC) and identified according the specification provided by ATCC.
2) Production of tumor. 10^6 4T1 cells were subcutaneously injected to the back of the BALB/C mice. Mice were randomly grouped after the diameter of the tumor reached about 0.3 cm to 0.4 cm. Then treatment began.
Succinyl-AANL-DOX (SEQ ID NO: 2), Legubicin and EMC-AANL-DOX (SEQ ID NO: 2) were intraperitoneally injected. The dose of Succinyl-AANL-DOX (SEQ ID NO: 2), Legubicin and EMC-AANL-DOX (SEQ ID NO: 2) were all 28.16 μmol/kg. The dose of doxorubicin hydrochloride was 3.448 μmol/kg. The control group was administered with physiological saline. The drugs were administered twice weekly for three weeks.
4) Results and discussion.

[4] = target: T1, Cathepsin B (Homo sapiens, UniProt P07858); test: Cathepsin enzymatic activity with Z-Phe-Arg-NMec substrate; type: biochemical; conditions: pH 6.0, FIG. 2
Excerpt: Furthermore, Z-Phe-Arg-NMec was used as substrate to analyze the activity of cathepsin under pH 6.0. […] Cathepsin B was highly expressed in the lysosome of the tumor cell. It could degrade type I collagen, activate interstitial procollagenase and type IV procollagenase, and degrade type I, II, III and IV collagen fibers in the stroma, thus anticipating infiltration and metastasis of tumor.

[5] = target: T1, Cathepsin B; test: In vitro binding to cathepsin absorbed on a 96-well plate (fluorescence of bound drug); conditions: cathepsin absorbed on 96-well plate, blocked with BSA, FIG. 1
Excerpt: The R6 group allows the drug to be able to target cathepsin (Cathepsin B) in the tumor microenvironment and inhibit the activity of cathepsin necessary for tumor growth, development and metastasis. […] The R6 group also allows the drug to have an additional function of targeting tumor, thus the drug has two targeted effects.
The test method was described as follows. Cathepsin was absorbed on a 96-well plate and blocked with BSA. Succinyl-AANL-DOX (SEQ ID NO: 2), S1 and a mixture of S1 and E-64 (an inhibitor for specific binding of cathepsin) were added to allow them to bind to the cathepsin on the 96-well plate. The unbound drugs were removed and the fluorescence of the bound drug was detected.

[6] = system: 4T1 cells; test: Efficacy in 4T1 tumor metastasis (lung) model in BALB/C mice; type: in vivo; conditions: lung, day 27; i.p. daily for 8 days; S1, S2 10 μmol/kg, doxorubicin hydrochloride 3 μmol/kg
Excerpt: Test purpose: to investigate the anti-tumor efficacy of S1 and S2 in a tumor metastasis treatment model from BALB/C mice.
Test drug: S1 and S2 injections, and doxorubicin hydrochloride injection, diluted to corresponding concentrations with physiological saline when testing.
1. Animal: BALB/C mice of 6-8 weeks old, all female.
1) 4T1 cells were purchased from American type culture collection (ATCC) and identified according the specification provided by ATCC. Cells were cultivated in DMEM culture medium containing 10% fetal bovine serum at 37° C. and 5% CO2. The cells were passaged for every three days and cells within the 15th passage were used.
2) Production of tumor metastasis. 10^6 […] were subcutaneously injected to the back of the BALB/C mice. Mice were randomly grouped after the tumor grew to about 1.5 cm. The subcutaneous tumor was removed by surgery and drug treatment began. Mice were killed after anesthesia on day 27. The whole lung was taken out and put into Bouin's solution for staining. The number of the tumor metastasized to lung was counted with anatomical microscope.
as §1, with “3) Course of treatment. According” for “According”, “10 μmol/kg (<1/10” for “30 mg/kg (<1/2”, “3 μmol/kg” for “4 mg/kg”, “daily” for “twice weekly”, “8 days.” for “three weeks.”

[7] = Metabolic half-life in mice blood

**Q.** With COc1cccc2c1C(=O)c1c(O)c3c(c(O)c1C2=O)CC(O)(C(=O)CO)CC3OC1CC(NC(=O)C(CC(C)C)NC(=O)C(CC(N)=O)NC(=O)C(C)NC(=O)C(C)NC(=O)CCCCCN2C(=O)C=CC2=O)C(O)C(C)O1 (stereo not drawn) [Example S1, EMC-AANL-Doxorubicin] as the molecule, how does the “Distribution in tumor tissue sections (fluorescence microscope)” value [1] read?
**A.** have the effect to accumulate the drug at tumor cell

**Q.** And the “Distribution in tumor tissue sections (fluorescence microscope)” value ([1]; listed as EMC-AANL-DOX)?
**A.** significantly more

**Q.** What about the “Accumulation in the heart tissue” value [1] of the same molecule?
**A.** reduced accumulation in the heart

**Q.** What about the “Accumulation in the heart tissue” value ([1]; listed as EMC-AANL-DOX) of the same molecule?
**A.** no accumulation in the heart tissue

**Q.** And the “Accumulation in the tumor tissue” value [1]?
**A.** accumulation of S1 in the tumor site

**Q.** What about the “Accumulation in the tumor tissue” value ([1]; listed as EMC-AANL-DOX) of the same molecule?
**A.** accumulated in a higher concentration in the tumor tissue

**Q.** What about the “Inhibitory rate of tumor, 20 days” value ([2]; 20 days) of the same molecule?
**A.** 25.8%

**Q.** What about the “Size of tumor (mm^3), 20 days” value ([2]; 20 days, nude mice) of the same molecule?
**A.** 287.42 ± 30.52 mm^3

**Q.** What about the “Inhibitory rate of tumor, 38 days” value ([2]; 38 days) of the same molecule?
**A.** 68.5%

**Q.** What about the “Size of tumor (mm^3), 38 days” value ([2]; 38 days, nude mice) of the same molecule?
**A.** 678.49 ± 37.7 mm^3

**Q.** And the “Inhibitory effect on tumor growth (in words)” value ([3]; 28.16 μmol/kg i.p. twice weekly for three weeks, compared with Succinyl-AANL-DOX, Dox and BOC-AANL-DOX, FIG. 5)?
**A.** could significantly improve the inhibitory effect on tumor growth; also recorded: exhibits a superior inhibitory effect on tumor growth

**Q.** And the “Inhibitory effect on tumor growth relative to Succinyl-AANL-DOX” value ([3]; 4T1 breast cancer model, etc.)?
**A.** 4-5 folds

**Q.** What about the “Inhibition of enzymatic activity of cathepsin” value [4] of the same molecule?
**A.** could effectively inhibit the enzymatic activity of cathepsin

**Q.** And the Binding to cathepsin [5]?
**A.** bound to the cathepsin; also recorded: can bind cathepsin

**Q.** What about the Binding to cathepsin ([5]; listed as EMC-AANL-DOX) of the same molecule?
**A.** can efficiently bind to Cathepsin B

**Q.** And the “Inhibitory rate on metastasis” value [6]?
**A.** 91.6%

**Q.** And the “Number of metastasized tumor” value [6]?
**A.** 12 ± 4

**Q.** What about the “Metabolic half-life in the mice blood” value [7] of the same molecule?
**A.** above 74 hours
